Converted amounts (≈) assume the structure as drawn.
Columns and labels:
Format in all cases: physicochemical
[1] = Solubility in biological media (FaSSIF, FeSSIF), HPLC detection; details: for solubility at 0.5 h / solubility at 2 h / solubility at 24 h / Solubility: 37° C.
Protocol: (§1) Add 20 mg of the sample (the compound shown by Formula (I) in the form of Crystal Form A) into a 10 ml conical tube, and then add 4 ml of water or biological medium (FeSSIF (pH 5.0) or FaSSIF (pH 6.5)), respectively. Shake the solution at 37° C. for 24 h in a constant temperature bath at 1000 rpm, and take samples at 0.5 h, 2 h and 24 h, respectively. Filter the samples through an aquo-system microporous filter membrane and discard the initial filtrate to obtain the test solution.
Perform an HPLC detection for the test solution ([…]), and calculate the sample concentration according to the standard curve method.
as §1, with “(II)” for “(I)”, “B)” for “A)”

[2] = Hygroscopicity by dynamic moisture absorber (DVS); details: for Weight gain at 80% RH: DVS, 25° C.; for Hygroscopicity (definition criteria for hygroscopic weight gain): from weight gain at 80% RH
Protocol: The humidity change for each gradient within 0%~90% is 10%. Airflow: 200 ml/min; temperature: 25° C.; testing point: one testing point taken every 10% increase in humidity.
Take an appropriate amount of the test sample (the compound shown by Formula (I) in the form of Crystal Form A) to test its hygroscopicity with a dynamic moisture absorber.
Take an appropriate amount of the test sample (the compound shown by Formula (II) in the form of Crystal Form B) to test its hygroscopicity with a dynamic moisture absorber.

[3] = Solid-state stability under high temperature, high humidity, light exposure and acceleration conditions (HPLC purity, XRPD form); details: for remaining at 168 h / remaining at 360 h: solid state
Text: Sample on the 7th and 15th day to observe the color change of the samples. Analyze the sample purity and crystal form through HPLC and XPRD detection, respectively.
Sample on the 15th day to observe the color change of the sample. Analyze the sample purity and crystal form through HPLC and XPRD detection, respectively.

[4] = Acceleration 40° C./75% RH, 15d

SMILES: O=C(N[C@@H](Cc1ccc(N2C(=O)C3(CC3)c3ccc(F)c(F)c32)cc1)C(=O)O)c1c(F)cccc1Cl [Crystal Form A, (S)-2-(2-chloro-6-fluorobenzoyl amido)-3-(4-(6′,7′-difluoro-2′-oxospiro [cyclopropane-1,3′-indoline]-1′-yl)phenyl) propionic acid]
- solubility at 0.5 h ([1]; FaSSIF (pH 6.5), 0.5 h): 2130 µg/mL (≈ 4140 µM)
- solubility at 2 h ([1]; FaSSIF (pH 6.5), 2 h): 2230 µg/mL (≈ 4330 µM)
- solubility at 24 h ([1]; FaSSIF (pH 6.5), 24 h): 2220 µg/mL (≈ 4310 µM)
- solubility at 0.5 h ([1]; FeSSIF (pH 5.0), 0.5 h): 460 µg/mL (≈ 893 µM)
- solubility at 2 h ([1]; FeSSIF (pH 5.0), 2 h): 480 µg/mL (≈ 932 µM)
- solubility at 24 h ([1]; FeSSIF (pH 5.0), 24 h): 490 µg/mL (≈ 952 µM)
- Solubility in FeSSIF and FaSSIF (in words) [1]: good solubility
- Solubility in FeSSIF and FaSSIF (in words) ([1]; listed as Crystal form A): relatively good
- Weight gain at 80% RH [2]: 0.09%
- Hygroscopicity (definition criteria for hygroscopic weight gain) [2]: no or almost no hygroscopicity
- Change in purity and crystal form (in words) ([3]; 15 days at 60° C., 92.5% RH, 4500 lux and 40° C./75% RH): no significant changes
- Crystal form (XRPD) ([3]; Acceleration 40° C./75% RH, 7d): Unchanged
- Crystal form (XRPD) [3, 4]: Unchanged
- Crystal form (XRPD) ([3]; High humidity 92.5% RH, 7d): Unchanged
- Crystal form (XRPD) ([3]; High humidity 92.5% RH, 15d): Unchanged
- Crystal form (XRPD) ([3]; High temperature 60° C., 7d): Unchanged
- Crystal form (XRPD) ([3]; High temperature 60° C., 15d): Unchanged
- Crystal form (XRPD) ([3]; Light exposure 4500 lux, 7d): Unchanged
- Crystal form (XRPD) ([3]; Light exposure 4500 lux, 15d): Unchanged
- remaining at 168 h ([3]; Acceleration 40° C./75% RH, 7d): 99.4%
- remaining at 360 h [3, 4]: 99.4%
- remaining at 168 h ([3]; High humidity 92.5% RH, 7d): 99.3%
- remaining at 360 h ([3]; High humidity 92.5% RH, 15d): 99.3%
- remaining at 168 h ([3]; High temperature 60° C., 7d): 99.4%
- remaining at 360 h ([3]; High temperature 60° C., 15d): 99.4%
- remaining at 168 h ([3]; Light exposure 4500 lux, 7d): 99.2%
- remaining at 360 h ([3]; Light exposure 4500 lux, 15d): 99.2%

SMILES: O=C(N[C@@H](Cc1ccc(N2C(=O)C3(CC3)c3ccc(F)c(F)c32)cc1)C(=O)O)c1c(F)cccc1Cl [Crystal Form B, (S)-2-(2-chloro-6-fluorobenzoyl amido)-3-(4-(6′,7′-difluoro-2′-oxospiro [cyclopropane-1,3′-indoline]-1′-yl)phenyl) propionic acid]
- Solubility ([1]; FaSSIF (pH 6.5), 0.5 h): 3187 µg/mL (≈ 6190 µM)
- Solubility ([1]; FaSSIF (pH 6.5), 2 h): 2961 µg/mL (≈ 5750 µM)
- Solubility ([1]; FaSSIF (pH 6.5), 24 h): 2791 µg/mL (≈ 5420 µM)
- Solubility ([1]; FeSSIF (pH 5.0), 0.5 h): 869 µg/mL (≈ 1690 µM)
- Solubility ([1]; FeSSIF (pH 5.0), 2 h): 815 µg/mL (≈ 1580 µM)
- Solubility ([1]; FeSSIF (pH 5.0), 24 h): 734 µg/mL (≈ 1430 µM)
- Solubility in FeSSIF and FaSSIF (in words) [1]: relatively good
- Weight gain at 80% RH [2]: 0.71%
- Hygroscopicity (definition criteria for hygroscopic weight gain) [2]: slight hygroscopicity
